Experimental data as given in patent US8445484B2, “Bicyclic peptidomimetic inhibitors of aspartyl-proteases for the treatment of infectious diseases” (Istituto Superiore di Sanita', priority 2008, dated 2013).
Square brackets hold non-standard residues; d marks the D form. Peptide text beside a SMILES is read from it. * marks the point of attachment. Sta = CC(C)C[C@H](N)[C@@H](O)CC(=O)O; Isovaleryl = CC(C)CC(=O)*

Legend:
[1] = biological target: SAP2 (Candida albicans, UniProt P0DJ06); format: biochemical; conditions: 10 μm compound; relative to pepstatin; pH 3.2, 30 min at 37° C.
Sequence of SAP2 (P0DJ06 57-398): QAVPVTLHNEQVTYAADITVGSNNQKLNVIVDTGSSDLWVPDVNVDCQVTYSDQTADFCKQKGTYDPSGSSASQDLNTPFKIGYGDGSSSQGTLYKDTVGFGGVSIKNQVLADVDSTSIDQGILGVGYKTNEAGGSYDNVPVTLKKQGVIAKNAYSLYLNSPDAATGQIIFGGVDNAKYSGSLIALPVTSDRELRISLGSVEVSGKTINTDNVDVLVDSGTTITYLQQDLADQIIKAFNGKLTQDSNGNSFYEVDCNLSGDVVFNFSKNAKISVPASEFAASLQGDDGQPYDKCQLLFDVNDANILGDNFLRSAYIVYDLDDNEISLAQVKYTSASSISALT
Protocol: Spectrophotometric method: protease activity of the various compounds of formula (I) was measured by a spectrophotometric assay with respect to pepstatin activity at the same concentration: each assay contained 50 μl of sample in 0.4 ml of 1% (w/v) BSA in 50 mM sodium citrate pH 3.2 and 50 μl of protease solution (1 μg/ml) After 30 min at 37° C. 1 ml 10% (w/v) trichloroacetic acid was added. The tubes were stored in ice for 30 min, and then centrifuged (3000 g) for 10 min. The absorbance of the supernatant was read at 280 nm. Control: 1% BSA in citrate buffer. One unit of the enzyme catalysed a ΔA280 of 1 min^−1. With the pure protease the assay was proportional to enzyme concentration over the range ΔA280 0.1-0.4 and a limit detection of 1 μg (De Bernardis F., Sullivan P. A., Cassone A. Medical Mycology 2001, 39, 303).

[2] = tested on: C. albicans SA40; assay: Experimental rat vaginal infection, C. albicans SA40 clearance; format: in vivo, Candida albicans; conditions: for Candida SA40 cells in vaginal fluid (CFU/ml): oophorectomized Wistar rats, intravaginal treatment 1, 24, 48 hrs after challenge
Protocol: (§1) Experimental vaginal infection: for the experimental vaginal infection, a previously described rat vaginal model was adopted (De Bernardis, F.; Boccanera, M.; Adriani, D.; Spreghini, E.; Santoni, G.; Cassone, A. Infect. Immun., 1997, 65, 3399).
(§2) In brief, oophorectomized female Wistar rats (80-100 g; Charles River Calco, Italy) were injected subcutaneously with 0.5 mg of estradiol benzoate (Estradiolo, Amsa Farmaceutici srl, Rome, Italy). Six days after the first estradiol the animals were inoculated intravaginally with […] yeast cells in 0.1 ml of saline solution of each C. albicans strain tested. The inoculum was dispensed into the vaginal cavity through a syringe equipped with a multipurpose calibrated tip (Combitip; PBI, Milan, Italy). The yeast cells had been previously grown in YPD broth (yeast extract 1%; peptone 2%; dextrose 2%) at 28° C. on a gyrator shaker (200 rpm), harvested by centrifugation (1500 g), washed, counted in a hemocytometer, and suspended to the required number in saline solution. The number of cells in the vaginal fluid was counted by culturing 100 μl samples (using a calibrated plastic loop, Disponoic, PBI, Milan, Italy) taken from each animals, on Sabouraud agar containing chloramphenicol (50 μg/ml) as previously described. The rat was considered infected when at least 1 CFU was present in the vaginal lavage, i.e. a count of […].
(§3) Positive (pepstatin 10 μg; fluconazole 10 μg and negative (sterile saline solution) were similarly administered.

[3] = tested on: C. albicans AIDS68; assay: Experimental rat vaginal infection, C. albicans AIDS68 (pharmacoresistant) clearance; format: in vivo, Candida albicans; conditions: for Candida AIDS68 cells in vaginal fluid (CFU/ml): oophorectomized Wistar rats, intravaginal treatment 1, 24, 48 hrs after challenge
Protocol: as §1, §2, §3

COC(=O)[C@H](CC(C)C)N1C[C@H]2O[C@H](C(=O)N3CCCCC3)[C@@H](O2)C1=O [Cpd 1, (2S)-4-Methyl-2-[(1R,5S,7S)-2-oxo-7-(piperidine-1-carbonyl)-6,8-dioxa-3-aza-bicyclo[3.2.1]oct-3-yl]-pentanoic acid methyl ester]
1% percent of inhibition with respect to pepstatin at the same concentration [1]: 37%

COC(=O)[C@H](CC(C)C)N1C[C@H]2O[C@H](C(=O)N3CCOCC3)[C@@H](O2)C1=O [Cpd 2, 4′-Methyl-(2′S)-2′-[(1R,5S,7S)-7-(morpholine-4-carbonyl)-2-oxo-6,8-dioxa-3-aza-bicyclo[3.2.1]oct-3-yl]-pentanoic acid methyl ester]
1% percent of inhibition with respect to pepstatin at the same concentration [1]: 32%

CCCCNC(=O)CC(O)CNC(=O)[C@H](CC(C)C)N1C[C@H]2O[C@H](C(=O)N3CCCCC3)[C@@H](O2)C1=O (stereo partly drawn) [Cpd 3, (2S)-4-Methyl-2-[(1R,5S,7S)-2-oxo-7-(piperidine-1-carbonyl)-6,8-dioxa-3-aza-bicyclo[3.2.1]oct-3-yl]-pentanoic acid (3-butylcarbamoyl-2-hydroxy-propyl)-amide]
1% percent of inhibition with respect to pepstatin at the same concentration [1]: 22%

O=C(NCCO)C1OC2CN(Cc3ccccc3)C(=O)C1O2 (stereo not shown) [Cpd 4]
1% percent of inhibition with respect to pepstatin at the same concentration [1]: 36%

CC(C)CC(CO)NC(=O)C1OC2CN(Cc3ccccc3)C(=O)C1O2 (stereo not shown) [Cpd 5]
1% percent of inhibition with respect to pepstatin at the same concentration [1]: 41%

O=C(C1OC2CN(Cc3ccccc3)C(=O)C1O2)N1CCCCC1 (stereo not shown) [Cpd 6]
1% percent of inhibition with respect to pepstatin at the same concentration [1]: 42% | differences between treated and untreated control ([2]; SA40, starting day 1, P<0.01, Mann-withney U test): statistically significant | Candida SA40 cells in vaginal fluid (CFU/ml) ([2]; day 0): >100 ×1000 | Candida SA40 cells in vaginal fluid (CFU/ml) ([2]; day 1): 70 ± 1.3 ×1000 | Candida SA40 cells in vaginal fluid (CFU/ml) ([2]; day 2): 57.6 ± 1.4 ×1000 | Candida SA40 cells in vaginal fluid (CFU/ml) ([2]; day 5): 39.2 ± 3 ×1000 | Candida SA40 cells in vaginal fluid (CFU/ml) ([2]; day 7): 30.6 ± 1.8 ×1000 | Candida SA40 cells in vaginal fluid (CFU/ml) ([2]; day 14): 14.4 ± 1.6 ×1000 | Candida SA40 cells in vaginal fluid (CFU/ml) ([2]; day 21): 8 ± 1.5 ×1000 | Candida SA40 cells in vaginal fluid (CFU/ml) ([2]; day 28): 1.2 ± 0.7 ×1000 | differences between treated and untreated control ([3]; AIDS68, starting day 1, P<0.01, Mann-withney U test): statistically significant | Candida AIDS68 cells in vaginal fluid (CFU/ml) ([3]; day 0): >100 ± 0 ×1000 | Candida AIDS68 cells in vaginal fluid (CFU/ml) ([3]; day 1): 71.8 ± 1.3 ×1000 | Candida AIDS68 cells in vaginal fluid (CFU/ml) ([3]; day 2): 62.6 ± 1.5 ×1000 | Candida AIDS68 cells in vaginal fluid (CFU/ml) ([3]; day 5): 40.6 ± 1.4 ×1000 | Candida AIDS68 cells in vaginal fluid (CFU/ml) ([3]; day 7): 23.2 ± 1.4 ×1000 | Candida AIDS68 cells in vaginal fluid (CFU/ml) ([3]; day 14): 12.8 ± 1.2 ×1000 | Candida AIDS68 cells in vaginal fluid (CFU/ml) ([3]; day 21): 3.4 ± 1.7 ×1000 | Candida AIDS68 cells in vaginal fluid (CFU/ml) ([3]; day 28): 0 ± 0 ×1000

O=C(C1OC2CN(Cc3ccccc3)C(=O)C1O2)N1CCN(CCO)CC1 (stereo not shown) [Cpd 7]
1% percent of inhibition with respect to pepstatin at the same concentration [1]: 34%

O=C(C1OC2CN(Cc3ccccc3)C(=O)C1O2)N1CCOCC1 (stereo not shown) [Cpd 8]
1% percent of inhibition with respect to pepstatin at the same concentration [1]: 31%

CCOC(=O)N1CCN(C(=O)C2OC3CN(Cc4ccccc4)C(=O)C2O3)CC1 (stereo not shown) [Cpd 9]
1% percent of inhibition with respect to pepstatin at the same concentration [1]: 37%

O=C(NCCCO)C1OC2CN(Cc3ccccc3)C(=O)C1O2 (stereo not shown) [Cpd 10]
1% percent of inhibition with respect to pepstatin at the same concentration [1]: 12%

O=C(NC(CO)c1ccccc1)C1OC2CN(Cc3ccccc3)C(=O)C1O2 (stereo not shown) [Cpd 13]
1% percent of inhibition with respect to pepstatin at the same concentration [1]: 16%

O=C(NC(CO)Cc1ccccc1)C1OC2CN(Cc3ccccc3)C(=O)C1O2 (stereo not shown) [Cpd 14]
1% percent of inhibition with respect to pepstatin at the same concentration [1]: 19%

O=C(NC(CO)Cc1ccccc1)C1OC2CN(Cc3ccccc3)C(=O)C1O2 (stereo not shown) [Cpd 15]
1% percent of inhibition with respect to pepstatin at the same concentration [1]: 15%

CCCCNC(=O)C1OC2OC1C(=O)N(Cc1ccccc1)C2Cc1ccccc1 (stereo not shown) [Cpd 16]
1% percent of inhibition with respect to pepstatin at the same concentration [1]: 17%

CCCCCCNC(=O)C1OC2OC1C(=O)N(Cc1ccccc1)C2Cc1ccccc1 (stereo not shown) [Cpd 17]
1% percent of inhibition with respect to pepstatin at the same concentration [1]: 21%

O=C(NCC(F)(F)F)C1OC2OC1C(=O)N(Cc1ccccc1)C2Cc1ccccc1 (stereo not shown) [Cpd 18]
1% percent of inhibition with respect to pepstatin at the same concentration [1]: 17%

O=C(C1OC2OC1C(=O)N(Cc1ccccc1)C2Cc1ccccc1)N1CCOCC1 (stereo not shown) [Cpd 19]
1% percent of inhibition with respect to pepstatin at the same concentration [1]: 25%

O=C(C1OC2OC1C(=O)N(Cc1ccccc1)C2Cc1ccccc1)N1CCSCC1 (stereo not shown) [Cpd 20]
1% percent of inhibition with respect to pepstatin at the same concentration [1]: 28%

O=C(C1OC2OC1C(=O)N(Cc1ccccc1)C2Cc1ccccc1)N1CCN(CCO)CC1 (stereo not shown) [Cpd 21]
1% percent of inhibition with respect to pepstatin at the same concentration [1]: 31%

OC(Cn1cncn1)(Cn1cncn1)c1ccc(F)cc1F [fluconazole]
Candida AIDS68 cells in vaginal fluid (CFU/ml) ([3]; day 0): >100 ± 0 ×1000 | Candida AIDS68 cells in vaginal fluid (CFU/ml) ([3]; day 1): 100 ± 0 ×1000 | Candida AIDS68 cells in vaginal fluid (CFU/ml) ([3]; day 2): 93 ± 4.3 ×1000 | Candida AIDS68 cells in vaginal fluid (CFU/ml) ([3]; day 5): 61 ± 2.5 ×1000 | Candida AIDS68 cells in vaginal fluid (CFU/ml) ([3]; day 7): 44 ± 2.9 ×1000 | Candida AIDS68 cells in vaginal fluid (CFU/ml) ([3]; day 14): 18.7 ± 3.8 ×1000 | Candida AIDS68 cells in vaginal fluid (CFU/ml) ([3]; day 21): 11.7 ± 0.7 ×1000 | Candida AIDS68 cells in vaginal fluid (CFU/ml) ([3]; day 28): 0 ± 0 ×1000

CC(C)CC(=O)N[C@H](C(=O)N[C@H](C(=O)N[C@@H](CC(C)C)[C@@H](O)CC(=O)N[C@@H](C)C(=O)N[C@@H](CC(C)C)[C@@H](O)CC(=O)O)C(C)C)C(C)C [pepstatin, reference compound] (Isovaleryl-VV[Sta]A[Sta]-OH)
Candida SA40 cells in vaginal fluid (CFU/ml) ([2]; day 0): >100 ×1000 | Candida SA40 cells in vaginal fluid (CFU/ml) ([2]; day 1): 56.8 ± 2 ×1000 | Candida SA40 cells in vaginal fluid (CFU/ml) ([2]; day 2): 51 ± 1.2 ×1000 | Candida SA40 cells in vaginal fluid (CFU/ml) ([2]; day 5): 32.4 ± 2.5 ×1000 | Candida SA40 cells in vaginal fluid (CFU/ml) ([2]; day 7): 28 ± 1.5 ×1000 | Candida SA40 cells in vaginal fluid (CFU/ml) ([2]; day 14): 9.4 ± 1.4 ×1000 | Candida SA40 cells in vaginal fluid (CFU/ml) ([2]; day 21): 5 ± 1.3 ×1000 | Candida SA40 cells in vaginal fluid (CFU/ml) ([2]; day 28): 0 ×1000 | Candida AIDS68 cells in vaginal fluid (CFU/ml) ([3]; day 0): >100 ± 0 ×1000 | Candida AIDS68 cells in vaginal fluid (CFU/ml) ([3]; day 1): 58.4 ± 1.0 ×1000 | Candida AIDS68 cells in vaginal fluid (CFU/ml) ([3]; day 2): 52.0 ± 1.3 ×1000 | Candida AIDS68 cells in vaginal fluid (CFU/ml) ([3]; day 5): 37.2 ± 1.6 ×1000 | Candida AIDS68 cells in vaginal fluid (CFU/ml) ([3]; day 7): 30.0 ± 1.2 ×1000 | Candida AIDS68 cells in vaginal fluid (CFU/ml) ([3]; day 14): 19.8 ± 0.8 ×1000 | Candida AIDS68 cells in vaginal fluid (CFU/ml) ([3]; day 21): 3.8 ± 1.9 ×1000 | Candida AIDS68 cells in vaginal fluid (CFU/ml) ([3]; day 28): 0 ± 0 ×1000
